This note sets out measurements from paper PMC5349910, “Discovery of BPR1K871, a quinazoline based, multi-kinase inhibitor for the treatment of AML and solid tumors: Rational design, synthesis, in vitro and in vivo evaluation” (Oncotarget, 2016).

Molecules are shown by their SMILES. Entries after “also recorded” stand apart in the source; their conditions may differ.

The target in series [1] is CYP 2C19 (Homo sapiens, UniProt P33261). Put plainly: CYP inhibition assay, CYP 2C19. The class given is in vitro ADME.
CYP 2C19, sequence (P33261 whole entry): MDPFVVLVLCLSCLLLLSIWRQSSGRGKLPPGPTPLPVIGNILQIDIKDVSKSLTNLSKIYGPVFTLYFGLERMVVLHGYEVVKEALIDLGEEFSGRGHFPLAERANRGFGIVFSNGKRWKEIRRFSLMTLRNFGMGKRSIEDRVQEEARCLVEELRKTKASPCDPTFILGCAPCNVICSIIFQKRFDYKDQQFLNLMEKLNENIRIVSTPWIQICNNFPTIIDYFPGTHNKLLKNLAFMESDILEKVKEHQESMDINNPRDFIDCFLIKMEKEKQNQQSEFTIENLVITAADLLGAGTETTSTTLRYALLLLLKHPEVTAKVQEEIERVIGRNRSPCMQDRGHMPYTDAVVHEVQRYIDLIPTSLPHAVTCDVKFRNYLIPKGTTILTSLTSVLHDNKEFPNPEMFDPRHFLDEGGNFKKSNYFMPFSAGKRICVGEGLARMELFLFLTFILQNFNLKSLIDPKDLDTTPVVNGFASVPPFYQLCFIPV
The target in series [2] is KIT^L576P (Homo sapiens, UniProt P10721, L576P). Put plainly: KINOMEScan, KIT L576P. As to conditions: read-out: KIT^L576P % control.
KIT^L576P, sequence (P10721 26-976 L576P): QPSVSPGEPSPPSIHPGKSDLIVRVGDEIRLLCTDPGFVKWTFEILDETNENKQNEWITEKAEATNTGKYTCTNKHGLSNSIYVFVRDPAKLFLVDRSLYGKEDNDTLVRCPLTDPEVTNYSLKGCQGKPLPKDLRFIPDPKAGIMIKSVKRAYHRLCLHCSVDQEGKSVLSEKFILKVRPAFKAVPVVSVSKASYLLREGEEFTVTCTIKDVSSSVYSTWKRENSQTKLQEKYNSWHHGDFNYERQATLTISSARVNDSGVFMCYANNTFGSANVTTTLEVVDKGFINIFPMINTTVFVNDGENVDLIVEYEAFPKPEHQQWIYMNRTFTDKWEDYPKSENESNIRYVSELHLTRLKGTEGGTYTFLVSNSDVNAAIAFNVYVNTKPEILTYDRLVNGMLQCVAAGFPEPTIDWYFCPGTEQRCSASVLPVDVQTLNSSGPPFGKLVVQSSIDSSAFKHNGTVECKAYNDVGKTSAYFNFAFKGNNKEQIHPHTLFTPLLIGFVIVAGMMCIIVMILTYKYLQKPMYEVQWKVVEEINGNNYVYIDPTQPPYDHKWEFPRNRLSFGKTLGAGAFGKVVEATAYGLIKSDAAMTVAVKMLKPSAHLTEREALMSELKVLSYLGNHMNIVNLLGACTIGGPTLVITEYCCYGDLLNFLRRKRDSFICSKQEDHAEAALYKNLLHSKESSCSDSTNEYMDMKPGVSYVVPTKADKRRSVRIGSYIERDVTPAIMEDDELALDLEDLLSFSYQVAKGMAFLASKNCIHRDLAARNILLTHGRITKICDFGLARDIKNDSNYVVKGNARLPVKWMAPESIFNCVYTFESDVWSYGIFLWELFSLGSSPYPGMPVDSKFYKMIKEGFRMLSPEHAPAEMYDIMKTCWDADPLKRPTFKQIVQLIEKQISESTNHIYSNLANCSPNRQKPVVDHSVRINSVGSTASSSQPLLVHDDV
Series [3] concerns the target KIT^V559D,V654A (Homo sapiens, UniProt P10721, V559D/V654A). Put plainly: KINOMEScan, KIT V559D,V654A. As to conditions: read-out: KIT^V559D,V654A % control.
Series [4] concerns the target AURKC (Homo sapiens, UniProt Q9UQB9). Put plainly: KINOMEScan, AURKC. As to conditions: read-out: AURKC % control.
Series [5] relates to CL-97 cells. Put plainly: Anti-proliferative activity, CL-97. As to conditions: CL97; Human Lung Cancer; supplement values ± SEM; read-out: CL-97 EC50. The class given is cell-based, human.
Series [6] concerns MESSA/DX cells. Put plainly: Anti-proliferative activity, MESSA/DX. Type of series: cell-based. As to conditions: Homo sapiens; Doxorubicin Drug Resisted MESSA.
Series [7] concerns Mia-PaCa2 cells. Put plainly: Anti-proliferative activity, Mia-PaCa2. Type of series: cell-based, human. As to conditions: supplement values ± SEM.
The target of series [8] is AURKB (Homo sapiens, UniProt Q96GD4). Put plainly: KINOMEScan, AURKB. As to conditions: read-out: AURKB % control.
AURKB, sequence (Q96GD4 whole entry): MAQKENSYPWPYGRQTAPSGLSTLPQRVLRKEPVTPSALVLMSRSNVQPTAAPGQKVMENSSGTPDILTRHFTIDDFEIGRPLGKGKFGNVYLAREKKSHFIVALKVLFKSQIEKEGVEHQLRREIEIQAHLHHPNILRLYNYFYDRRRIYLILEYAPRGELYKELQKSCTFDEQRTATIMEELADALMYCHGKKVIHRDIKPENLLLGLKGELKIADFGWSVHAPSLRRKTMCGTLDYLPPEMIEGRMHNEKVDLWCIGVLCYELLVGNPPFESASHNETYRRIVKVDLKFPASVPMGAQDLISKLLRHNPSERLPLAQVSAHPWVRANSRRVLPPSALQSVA
The subject of series [9] is MOLM-13 cells. Put plainly: MTS cell viability assay, MOLM-13. The class given is cell-based, human. As to conditions: Homo sapiens, MOLM-13, 72 h, MTS, 72 h; AML-FLT3-ITD (heterozygous); supplement values ± SEM; read-out: MOLM-13 EC50. The method, then:
The MTS cell viability assay was conducted as previously described. The MOLM-13 human leukemia cell line was obtained from the German Resource Centre for Biological Material (DSMZ, Braunschweig, Germany); the MV4-11 cell line was purchased from the American Type Culture Collection (ATCC, Manassas, VA, USA). […] To determine cell viability after drug treatment, assay for MOLM-13 and MV4-11 was performed by seeding 10000 cells per well in a 96-well culture plate. […] After 16 h, cells were then treated with vehicle or various concentrations of compound in medium for 72 h. Viable cells were quantified using the MTS method (Promega, Madison, WI, USA) according to the manufacturer's recommended protocol. Results were determined by measuring the absorbance at 490 nm using a plate reader (Victor2; PerkinElmer, Shelton, CT, USA).
(Tetrazolium assays rely on reduction of a dye to a coloured formazan, in cell work by metabolically active cells.)

Series [10] deals with KIT^A829P (Homo sapiens, UniProt P10721, A829P). Put plainly: KINOMEScan, KIT A829P. As to conditions: read-out: KIT^A829P % control.
KIT^A829P, sequence (P10721 26-976 A829P): as the sequence (P10721 26-976 L576P) above, with P551L, A804P counted along it
Series [11] deals with H2228 cells. Put plainly: Anti-proliferative activity, H2228. The class given is cell-based. As to conditions: Homo sapiens, NCI-H2228; NSCLC-ALK; supplement values ± SEM; read-out: H2228 EC50.
For series [12], the system named is FLT3 phosphorylation (pFLT3 at residue Y591). Put plainly: Western blot, FLT3 phosphorylation in MV4-11 cells. Type of series: cell-based, human. As to conditions: 2.0 h. The method, then: In order to understand the mode of action of BPR1K871, mechanistic studies in MV4-11 cell line using western blot analysis was carried out. MV4-11 cells were incubated with BPR1K871 in a dose-dependent manner for 2.0 h. Cell lysates were prepared and analyzed by immunoblotting for both FLT3 phosphorylation (pFLT3 at residue Y591) and AURKA phosphorylation (pAURKA at residue T288).
Western blot analysis was conducted as previously described. Primary antibodies against phospho-FLT3 (Tyr591) (#3461) and phospho-AURKA (Thr288) (#3079) were purchased from Cell Signaling Technology. The anti-FLT3 antibody (sc-480) and anti-AURKA antibody (07–648) were purchased from Santa Cruz Biotechnology and Upstate, respectively. The anti-β-actin rabbit polyclonal antibody (GTX110564) was purchased from GeneTex (CA, USA). The secondary antibodies horseradish peroxidase (HRP)-linked goat anti-rabbit IgG (111-035-003) were purchased from Jackson Immuno (West Grove, PA, USA). MV4-11 cells were incubated with compound BPR1K871 for 2.0 h at the indicated concentrations. Cell lysates were prepared and analyzed by immunoblotting. For AURKA analysis, the cell lysates were obtained from MV4-11 cells incubated for 16 h with 40 ngmL^-1 nocodazole, followed by drug treatment for 2.0 h at the indicated concentrations.

Series [13] deals with CYP 1A2 (Homo sapiens, UniProt P05177). Put plainly: CYP inhibition assay, CYP 1A2. The class given is in vitro ADME.
CYP 1A2, sequence (P05177 whole entry): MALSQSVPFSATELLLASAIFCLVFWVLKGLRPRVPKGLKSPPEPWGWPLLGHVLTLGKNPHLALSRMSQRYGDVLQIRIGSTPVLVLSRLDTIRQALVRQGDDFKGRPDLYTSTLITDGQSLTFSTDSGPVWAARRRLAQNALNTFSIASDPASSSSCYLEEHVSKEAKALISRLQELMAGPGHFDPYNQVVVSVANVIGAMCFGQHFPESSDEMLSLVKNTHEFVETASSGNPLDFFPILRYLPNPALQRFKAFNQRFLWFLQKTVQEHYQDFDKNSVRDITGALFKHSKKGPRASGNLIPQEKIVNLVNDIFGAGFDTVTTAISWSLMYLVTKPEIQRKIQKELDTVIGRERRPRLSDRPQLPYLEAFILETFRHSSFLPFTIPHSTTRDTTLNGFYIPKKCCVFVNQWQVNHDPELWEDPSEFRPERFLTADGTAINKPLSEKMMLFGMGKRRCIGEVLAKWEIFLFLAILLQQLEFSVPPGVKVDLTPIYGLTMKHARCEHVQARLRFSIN
For series [14], the system named is MESSA cells. Put plainly: Anti-proliferative activity, MESSA. The class given is cell-based. As to conditions: Homo sapiens, MES-SA; Uterine Sarcoma.
Series [15] deals with K562 cells. Put plainly: Anti-proliferative activity, K562. The class given is cell-based. As to conditions: Homo sapiens, K562; CML-Bcr-Abl FLT3-negative; supplement values ± SEM; read-out: K562 EC50.
Series [16] deals with AURKA (Homo sapiens, UniProt O14965). Put plainly: KINOMEScan, AURKA. As to conditions: read-out: AURKA % control.
AURKA, sequence (O14965 whole entry): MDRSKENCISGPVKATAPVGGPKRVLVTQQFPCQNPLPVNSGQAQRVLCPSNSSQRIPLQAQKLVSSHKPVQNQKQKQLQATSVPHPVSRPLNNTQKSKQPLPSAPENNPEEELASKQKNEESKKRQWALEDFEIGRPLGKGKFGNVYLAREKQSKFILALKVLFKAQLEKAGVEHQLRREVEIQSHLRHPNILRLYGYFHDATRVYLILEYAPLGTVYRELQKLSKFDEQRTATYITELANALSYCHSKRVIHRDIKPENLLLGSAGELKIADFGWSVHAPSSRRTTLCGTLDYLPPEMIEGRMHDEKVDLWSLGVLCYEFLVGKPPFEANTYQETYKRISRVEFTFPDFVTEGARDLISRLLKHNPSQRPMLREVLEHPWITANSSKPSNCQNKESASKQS
The test system of series [17] is MOLM-13 tumor xenograft. Put plainly: MOLM-13 subcutaneous xenograft model. Type of series: in vivo. As to conditions: nude mice, iv 1, 3 or 10 mg/kg; hydrochloride salt; p < 0.05. The method, then: Based on the potent in vitro anti-proliferative activity of BPR1K871, it was planned to investigate the in vivo efficacy. […] Subsequently, based on the PK study, we evaluated the acute toxicity of BPR1K871 in ICR mice (n = 3) by iv administration. […] Next, the antitumor activity of BPR1K871 was evaluated through IV route in MOLM-13 and MV4-11 xenograft models (Figure 5). For this, nude mice were inoculated subcutaneously with MOLM-13 and MV4-11 cells in the left flank. […] For MOLM-13 model, BPR1K871 was injected intravenously at 10 mg/kg daily for 5 days (on days 1–5); also BPR1K871 was intravenously administrated at 3 and 1 mg/kg once a day for two continuous weeks (on days 1–5 and 8–12). For MV4-11 model, BPR1K871 was intravenously administrated at 10, 3 and 1 mg/kg once a day for two continuous weeks (on days 1–5 and 8–12).

Series [18] can be described thus: Acute toxicity in ICR mice. Type of series: in vivo. As to conditions: ICR mice (n = 3), iv, 50 mg/kg once a day for five days.
The target of series [19] is ABL1^T315I (Homo sapiens, UniProt P00519, T315I). Put plainly: KINOMEScan, ABL1 T315I. As to conditions: read-out: ABL1^T315I % control.

KIT^V559D,V654A, sequence (P10721 26-976 V559D/V654A): as the sequence (P10721 26-976 L576P) above, with V534D, P551L, V629A counted along it
AURKC, sequence (Q9UQB9 whole entry): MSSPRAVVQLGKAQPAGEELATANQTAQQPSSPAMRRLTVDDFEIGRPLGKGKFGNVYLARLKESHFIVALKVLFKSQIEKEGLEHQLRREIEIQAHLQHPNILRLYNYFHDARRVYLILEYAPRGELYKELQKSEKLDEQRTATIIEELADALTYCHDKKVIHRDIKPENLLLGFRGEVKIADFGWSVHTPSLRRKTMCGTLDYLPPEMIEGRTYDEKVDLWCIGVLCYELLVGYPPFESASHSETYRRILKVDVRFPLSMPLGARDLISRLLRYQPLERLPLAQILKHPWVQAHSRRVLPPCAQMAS

In general, IC50 refers to the concentration that gives 50% inhibition. As a reminder, the EC50 is the concentration that produces a half-maximal response. Take `CN(C)CCCOc1ccc2c(NCCc3cnc(NC(=O)Nc4cccc(Cl)c4)s3)ncnc2c1` [BPR1K871, 1-(3-Chlorophenyl)-3-(5-(2-((7-(3-(dimethylamino)propoxy)quinazolin-4-yl)amino)ethyl)thiazol-2-yl)urea]: the IC50 in [1] and in series [13] was above 4000 nM throughout. Further, the remaining binding at 1 µM in series [2] is below 4%; in series [3], below 4%; in series [4], 3.3%; in series [8] it was 0.2%; in series [10] it was below 4%; in series [16], 0%. In addition, the remaining binding at 1 µM in series [19] is below 4.4%. In addition, the EC50 was 2890 nM in series [5]; 6900 nM in series [6]; below 100 nM in series [7] (Homo sapiens, MIA PaCa-2, Human Pancreatic Cancer); 94 nM in [7] (Human Pancreatic Cancer); around 5 nM in [9]; 212 nM in series [11]. For the same compound, the results for the EC50 in series [14] and in [15] were 216 nM and 2300 nM, respectively. Also, in series [12], the “concentration that completely inhibited formation of pFLT3 (Tyr591)” value turned out to be 2 nM. For the same compound, the “growth / volume of MOLM-13 tumor xenograft vs vehicle” value in series [17] was “significantly reduced; also recorded: inhibited”. The “acute toxicity (tolerability)” value in series [18] is on record as “well tolerated”.
